The structures appear in SMILES notation. Read-outs that look alike come from different tables or passages of the source.

Experiment [1] has as its system macrophages in the peritoneal fluid. Kind of experiment: Flow cytometry of peritoneal lavage cells (macrophage activation). The experiment is classed as in vivo. The following applies: mouse endometriosis model, p.o., vs vehicle control, p<0.001. Here is the method: For the obtainment of the cells from the peritoneum, 3 ml of cold PBS (phosphate buffered saline) were injected into the peritoneum of the dead animal and removed again after gentle massage of the abdomen. The cells from this peritoneal lavage were spun down at 1400 rpm for 2 min and taken up again in 500 μl of PBS containing 2% FCS (fetal calf serum). 100 μl of this cell suspension were used for each stain with different antibody-fluorochrome conjugate mixes. The cells were spun down for this purpose in 96 hole plates again and resuspended in 50 μl of an antibody solution in the 1:300 diluted anti CD11b-Pacific Blue (eBioscience), 1:200 diluted anti F4/80-PE (eBioscience), 1:200 diluted anti Gr1-APC-Cy7 (BD Pharmigen), 1:400 diluted anti CD11c-PE-Cy7 (BD Pharmigen) and 1:400 diluted anti MHCII-FITC (BD Pharmigen) and stored on ice in the dark for 20 min. Subsequently, 150 μl of PBS containing 2% FCS were added and the cells were once again centrifuged down at 1400 rpm for 2 min. The 200 μl of supernatant were discarded and the cells were washed with 200 μl of PBS containing 2% FCS and once again centrifuged off.
Subsequently, they were taken up in 200 μl of PBS containing 2% FCS and 1:5000 diluted 5 mg/ml DAPI (Sigma) and the fluorescence intensity of the individual fluorochromes per cell was measured with a FACS Canto II flow cytometer. […]
(In flow cytometry, cells or beads pass a laser one at a time.)

The next experiment concerns the target human EP4 receptor (Homo sapiens (Human), UniProt P35408). Description: Test for antagonism of the human EP4 receptor signal (cAMP HTRF). Type of experiment: cell-based. The gist of the method:
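Antagonism of PGE2-stimulated cAMP formation in hEP4-R cells with IBMX present. After lysis, cAMP measured by competitive TR-FRET (Eu cryptate anti-cAMP antibody vs cAMP-d2), 20 min at room temperature. Read-out is the 665/620 nm emission ratio; antagonism appears as restored FRET signal.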
(In general: In TR-FRET formats the signal depends on donor and acceptor labels being close together.)

A further experiment relates to endometrial lesions. Description: Syngeneic mouse endometriosis model (preventive). The experiment is classed as in vivo. The conditions noted are these: 28 days. Here is the method: The syngeneic induction of endometriosis in mice is a common animal model for testing the efficacy of substances for the treatment of endometriosis. Endometriosis is induced experimentally by transplantation of murine uterus fragments of a donor mouse of the same strain into the abdominal cavity of the recipient mouse. Female mice of the balb/c strain were used. The cycle of the mouse is determined by means of a vaginal smear. Donor animals which are in oestrus are used exclusively. The donor animals are sacrificed and the uterine horns are removed and subsequently cut open longitudinally. From the uteri, using a punch 2 mm bioptates are punched out, which are subsequently sewn into the recipient animal. The recipient animals are anaesthetised and subjected to a laparotomy. During the intervention, 6 uterus punchings of a donor mouse are sewn onto the parietal peritoneum of the recipient mouse. […] After 28 days, the animals are opened up in a final laparotomy and the lesion sizes are determined. The grown lesions are photographically recorded and the area is measured by means of AxioVision Software. […] In the s.c. approach (FIG. 1), the substance according to the invention (Example 4) was tested in 4 different dose schemes and the lesion size was assessed in comparison to the animals treated with vehicle. […]

Chain of human EP4 receptor (P35408 whole entry): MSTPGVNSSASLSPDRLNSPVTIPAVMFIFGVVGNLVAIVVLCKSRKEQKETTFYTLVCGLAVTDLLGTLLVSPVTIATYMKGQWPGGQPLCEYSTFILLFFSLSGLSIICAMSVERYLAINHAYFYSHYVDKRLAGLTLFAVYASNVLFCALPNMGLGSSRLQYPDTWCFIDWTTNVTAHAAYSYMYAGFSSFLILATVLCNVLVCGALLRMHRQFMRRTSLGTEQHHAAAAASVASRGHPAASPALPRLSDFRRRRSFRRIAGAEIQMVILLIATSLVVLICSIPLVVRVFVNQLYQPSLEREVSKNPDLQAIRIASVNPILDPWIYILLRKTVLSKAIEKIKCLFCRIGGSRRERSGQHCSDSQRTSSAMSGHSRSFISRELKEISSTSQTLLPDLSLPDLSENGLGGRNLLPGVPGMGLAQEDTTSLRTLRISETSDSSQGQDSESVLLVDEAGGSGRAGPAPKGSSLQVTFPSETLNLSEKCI

Usually IC50 stands for the point on the concentration scale where inhibition reaches its midpoint. With `CCn1c2ccccc2c2cc(-c3nc4cc(C(=O)O)ccc4n3CCOC)ccc21` [Example 4, 2-(9-Ethyl-9H-carbazol-3-yl)-1-(2-methoxyethyl)-1H-benzimidazole-5-carboxylic acid], the “number of activated macrophages in the peritoneal fluid (FACS)” value in experiment [1] was “highly significant reduced number of activated macrophages”. The IC50 was about 6 nM at human EP4 receptor (antagonism test Example 3.2.1, read-out: IC50 value at the EP4 receptor (antagonism test)) and 5.59 nM at human EP4 receptor (cells expressing hEP4, PGE2 at EC80 (0.4 nM), cAMP TR-FRET, read-out: Antagonism hEP4 IC50). Moreover, the “reduction of the endometrial lesions, oral administration” value with endometrial lesions (p.o., vs control, p<0.01) was “significant reduction of the endometrial lesions”. The “reduction of the endometrial lesions, subcutaneous administration” value with endometrial lesions (s.c., 0.4, 3, 10 and 50 mg/kg/day, vs vehicle) is reported as “significant reduction of the endometrial lesions”.

The record behind these values is US9708311B2, “Benzimidazole derivatives as EP4 antagonists” (BAYER PHARMA AKTIENGESELLSCHAFT, priority 2012, dated 2017).
